Results taken from US20260226493A1, “HERBICIDE RESISTANT PLANTS” (SYNGENTA CROP PROTECTION AG, priority 2023, published 2026).

What was measured:
Assay in all cases: BIO3-BIO1 mutant enzyme activity in the presence of herbicide, percentage inhibition (fluorometric DAPA assay)
Assay type in all cases: biochemical
Conditions in all cases: read-out: percentage inhibition
[1] = biological target: T1, Arabidopsis thaliana BIO3-BIO1 (BioDA) mutants (Arabidopsis thaliana, UniProt B0F481, P508T)
T1 construct: with the predicted N-terminal mitochondrial transit peptide removed; 6xHis-tag (N); thrombin cleavage site (N); made in house; host or cells: E. coli BL21 (DE3) bioA
In short: (§1)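 His-tagged Arabidopsis BIO3-BIO1 mutants, expressed in E. coli and purified by IMAC and SEC, were preincubated at 50 nM with herbicide for 10 min at 20 °C in EPPS pH 8.6 with pyridoxal phosphate. Reaction with 100 μM spermidine and 20 μM KAPA ran 75 min at 20 °C; DAPA was derivatised with o-phthalaldehyde and read at ex 410/em 470 nm. […].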

[2] = biological target: T2, Arabidopsis thaliana BIO3-BIO1 (BioDA) mutants (Arabidopsis thaliana, UniProt B0F481, G608E)
T2 construct: with the predicted N-terminal mitochondrial transit peptide removed; 6xHis-tag (N); thrombin cleavage site (N); made in house; host or cells: E. coli BL21 (DE3) bioA
In short: as §1

[3] = biological target: T3, Arabidopsis thaliana BIO3-BIO1 (BioDA) mutants (Arabidopsis thaliana, UniProt B0F481, G700A)
T3 construct: with the predicted N-terminal mitochondrial transit peptide removed; 6xHis-tag (N); thrombin cleavage site (N); made in house; host or cells: E. coli BL21 (DE3) bioA
In short: as §1

[4] = biological target: T4, Arabidopsis thaliana BIO3-BIO1 (BioDA) mutants (Arabidopsis thaliana, UniProt B0F481, P421G)
T4 construct: with the predicted N-terminal mitochondrial transit peptide removed; 6xHis-tag (N); thrombin cleavage site (N); made in house; host or cells: E. coli BL21 (DE3) bioA
In short: as §1

[5] = biological target: T5, Arabidopsis thaliana BIO3-BIO1 (BioDA) mutants (Arabidopsis thaliana, UniProt B0F481, P510C)
T5 construct: with the predicted N-terminal mitochondrial transit peptide removed; 6xHis-tag (N); thrombin cleavage site (N); made in house; host or cells: E. coli BL21 (DE3) bioA
In short: as §1

[6] = biological target: T6, Arabidopsis thaliana BIO3-BIO1 (BioDA) mutants (Arabidopsis thaliana, UniProt B0F481, Q350H)
T6 construct: with the predicted N-terminal mitochondrial transit peptide removed; 6xHis-tag (N); thrombin cleavage site (N); made in house; host or cells: E. coli BL21 (DE3) bioA
In short: as §1

[7] = biological target: T7, Arabidopsis thaliana BIO3-BIO1 (BioDA) mutants (Arabidopsis thaliana, UniProt B0F481, S704P)
T7 construct: with the predicted N-terminal mitochondrial transit peptide removed; 6xHis-tag (N); thrombin cleavage site (N); made in house; host or cells: E. coli BL21 (DE3) bioA
In short: as §1

[8] = biological target: T8, Arabidopsis thaliana BIO3-BIO1 (BioDA) mutants (Arabidopsis thaliana, UniProt B0F481, T512D)
T8 construct: with the predicted N-terminal mitochondrial transit peptide removed; 6xHis-tag (N); thrombin cleavage site (N); made in house; host or cells: E. coli BL21 (DE3) bioA
In short: as §1

[9] = biological target: T9, Arabidopsis thaliana BIO3-BIO1 (BioDA) mutants (Arabidopsis thaliana, UniProt B0F481, T512W)
T9 construct: with the predicted N-terminal mitochondrial transit peptide removed; 6xHis-tag (N); thrombin cleavage site (N); made in house; host or cells: E. coli BL21 (DE3) bioA
In short: as §1

[10] = biological target: T10, Arabidopsis thaliana BIO3-BIO1 (BioDA) mutants (Arabidopsis thaliana, UniProt B0F481, S509V)
T10 construct: with the predicted N-terminal mitochondrial transit peptide removed; 6xHis-tag (N); thrombin cleavage site (N); made in house; host or cells: E. coli BL21 (DE3) bioA
In short: as §1

[11] = biological target: T11, Arabidopsis thaliana BIO3-BIO1 (BioDA) mutants (Arabidopsis thaliana, UniProt B0F481, W391L)
T11 construct: with the predicted N-terminal mitochondrial transit peptide removed; 6xHis-tag (N); thrombin cleavage site (N); made in house; host or cells: E. coli BL21 (DE3) bioA
In short: as §1

[12] = biological target: T12, Arabidopsis thaliana BIO3-BIO1 (BioDA) mutants (Arabidopsis thaliana, UniProt B0F481, S509F)
T12 construct: with the predicted N-terminal mitochondrial transit peptide removed; 6xHis-tag (N); thrombin cleavage site (N); made in house; host or cells: E. coli BL21 (DE3) bioA
In short: as §1

T5 sequence (B0F481 23-833 P510C): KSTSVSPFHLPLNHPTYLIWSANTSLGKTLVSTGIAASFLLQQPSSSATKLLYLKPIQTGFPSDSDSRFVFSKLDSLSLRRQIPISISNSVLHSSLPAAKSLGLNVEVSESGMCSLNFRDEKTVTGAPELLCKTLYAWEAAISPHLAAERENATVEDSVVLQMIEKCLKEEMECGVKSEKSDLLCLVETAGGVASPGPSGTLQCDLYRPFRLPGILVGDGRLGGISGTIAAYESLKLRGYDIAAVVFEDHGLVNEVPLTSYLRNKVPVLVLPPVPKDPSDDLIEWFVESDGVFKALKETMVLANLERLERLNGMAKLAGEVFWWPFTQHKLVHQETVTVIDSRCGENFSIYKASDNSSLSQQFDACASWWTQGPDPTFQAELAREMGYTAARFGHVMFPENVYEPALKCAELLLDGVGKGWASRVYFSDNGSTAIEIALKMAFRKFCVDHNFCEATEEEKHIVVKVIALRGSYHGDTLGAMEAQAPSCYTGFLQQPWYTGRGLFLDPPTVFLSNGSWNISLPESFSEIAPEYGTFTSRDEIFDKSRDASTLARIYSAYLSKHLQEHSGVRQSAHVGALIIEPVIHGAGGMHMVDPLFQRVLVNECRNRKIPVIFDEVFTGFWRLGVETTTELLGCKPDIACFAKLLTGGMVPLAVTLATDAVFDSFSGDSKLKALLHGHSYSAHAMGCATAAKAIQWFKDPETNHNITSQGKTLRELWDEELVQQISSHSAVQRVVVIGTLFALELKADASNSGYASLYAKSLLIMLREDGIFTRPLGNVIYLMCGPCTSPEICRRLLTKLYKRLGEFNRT
T9 sequence (B0F481 23-833 T512W): as the sequence (B0F481 23-833 P510C) above, with C488P, T490W counted along it
T2 sequence (B0F481 23-833 G608E): as the sequence (B0F481 23-833 P510C) above, with C488P, G586E counted along it
T12 sequence (B0F481 23-833 S509F): as the sequence (B0F481 23-833 P510C) above, with S487F, C488P counted along it
T11 sequence (B0F481 23-833 W391L): as the sequence (B0F481 23-833 P510C) above, with W369L, C488P counted along it
T8 sequence (B0F481 23-833 T512D): as the sequence (B0F481 23-833 P510C) above, with C488P, T490D counted along it
T3 sequence (B0F481 23-833 G700A): as the sequence (B0F481 23-833 P510C) above, with C488P, G678A counted along it
T10 sequence (B0F481 23-833 S509V): as the sequence (B0F481 23-833 P510C) above, with S487V, C488P counted along it
T7 sequence (B0F481 23-833 S704P): as the sequence (B0F481 23-833 P510C) above, with C488P, S682P counted along it
T1 sequence (B0F481 23-833 P508T): as the sequence (B0F481 23-833 P510C) above, with P486T, C488P counted along it
T4 sequence (B0F481 23-833 P421G): as the sequence (B0F481 23-833 P510C) above, with P399G, C488P counted along it
T6 sequence (B0F481 23-833 Q350H): as the sequence (B0F481 23-833 P510C) above, with Q328H, C488P counted along it

Row | SMILES | inhibition at 1 µM [1] [%] | inhibition at 1 µM [2] [%] | inhibition at 1 µM [3] [%] | inhibition at 1 µM [7] [%] | inhibition at 1 µM [4] [%] | inhibition at 1 µM [5] [%] | inhibition at 1 µM [8] [%] | inhibition at 1 µM [6] [%] | inhibition at 1 µM [9] [%] | inhibition at 1 µM [10] [%] | inhibition at 1 µM [11] [%] | inhibition at 1 µM [12] [%] | inhibition at 0.2 µM [1] [%] | inhibition at 5 µM [1] [%] | inhibition at 0.2 µM [2] [%] | inhibition at 5 µM [2] [%] | inhibition at 0.2 µM [3] [%] | inhibition at 5 µM [3] [%] | inhibition at 0.2 µM [7] [%] | inhibition at 5 µM [7] [%] | other results
1 | CCn1c(Cn2ccc(C(F)(F)F)n2)cc(=O)c(C(=O)O)c1-c1ccc(Cl)c(Cl)c1 [Compound L, 2-(3,4-dichlorophenyl)-1-ethyl-4-oxo-6-[[3-(trifluoromethyl)pyrazol-1-yl]methyl]pyridine-3-carboxylic acid] |  |  |  |  |  |  |  |  |  |  |  |  |  |  |  |  |  |  |  |  | inhibition at 0.01 µM [1]: 25%; inhibition at 0.075 µM [1]: 22%; inhibition at 0.5 µM [1]: 85%; inhibition at 0.01 µM [2]: 31%; inhibition at 0.075 µM [2]: 58%; inhibition at 0.5 µM [2]: 68%; inhibition at 0.01 µM [3]: 6%; inhibition at 0.075 µM [3]: 6%; inhibition at 0.5 µM [3]: 3%; inhibition at 0.01 µM [4]: 9%; inhibition at 0.075 µM [4]: 11%; inhibition at 0.5 µM [4]: 85%; inhibition at 0.01 µM [5]: 0%; inhibition at 0.075 µM [5]: 38%; inhibition at 0.5 µM [5]: 77%; inhibition at 0.01 µM [6]: 0%; inhibition at 0.075 µM [6]: 16%; inhibition at 0.5 µM [6]: 38%
2 | CCOC(=O)c1nn(-c2ccc3c(c2)OC(F)(F)C(F)(F)O3)c2cccc(C(C)=O)c2c1=O [Compound A, ethyl 5-acetyl-4-oxo-1-(2,2,3,3-tetrafluoro-1,4-benzodioxin-6-yl)cinnoline-3-carboxylate] | 55 | 56 | 0 | 56 | 30 | 20 | 33 | 23 | 0 | 6 | 62 | 6 |  |  |  |  |  |  |  |  | 
3 | CCn1c(-c2ccc(Cl)c(Cl)c2)c(C(=O)O)c(=O)c2cc(F)ccc21 [Compound M, 2-(3,4-dichlorophenyl)-1-ethyl-6-fluoro-4-oxo-quinoline-3-carboxylic acid] | 44 | 55 | 8 | 16 | 39 | 36 | 86 | 8 | 55 | 26 | 16 | 58 | 20 | 78 | 19 | 85 | 7 | 6 | 0 | 47 | inhibition at 0.2 µM [4]: 19%; inhibition at 5 µM [4]: 75%; inhibition at 0.2 µM [5]: 9%; inhibition at 5 µM [5]: 69%; inhibition at 0.2 µM [8]: 59%; inhibition at 5 µM [8]: 96%; inhibition at 0.2 µM [6]: 0%; inhibition at 5 µM [6]: 20%; inhibition at 0.2 µM [9]: 33%; inhibition at 5 µM [9]: 83%; inhibition at 0.2 µM [10]: 22%; inhibition at 5 µM [10]: 88%; inhibition at 0.2 µM [11]: 18%; inhibition at 5 µM [11]: 43%; inhibition at 0.2 µM [12]: 19%; inhibition at 5 µM [12]: 89%
4 | CCn1c(C)c(-c2ccc(F)cc2F)c(=O)c(C(=O)O)c1-c1ccc(Cl)c(Cl)c1 [Compound C, 2-(3,4-dichlorophenyl)-5-(2,4-difluorophenyl)-1-ethyl-6-methyl-4-oxo-pyridine-3-carboxylic acid] | 54 | 52 | 7 | 23 | 35 | 53 | 95 | 2 | 83 | 30 | 29 | 82 | 23 | 82 | 25 | 81 | 4 | 28 | 1 | 60 | inhibition at 0.2 µM [4]: 11%; inhibition at 5 µM [4]: 80%; inhibition at 0.2 µM [5]: 13%; inhibition at 5 µM [5]: 78%; inhibition at 0.2 µM [8]: 79%; inhibition at 5 µM [8]: 97%; inhibition at 0.2 µM [6]: 0%; inhibition at 5 µM [6]: 25%; inhibition at 0.2 µM [9]: 50%; inhibition at 5 µM [9]: 95%; inhibition at 0.2 µM [10]: 17%; inhibition at 5 µM [10]: 94%; inhibition at 0.2 µM [11]: 23%; inhibition at 5 µM [11]: 33%; inhibition at 0.2 µM [12]: 24%; inhibition at 5 µM [12]: 98%
